Assay results published in patent publication US8063060B2, “R(−)-11-hydroxyaporphine derivatives and uses thereof” (The McLean Hospital Corporation, priority 2004, dated 2011).
Structures can show the parent of a compound that is named as a salt. Where two headings read alike, the source gives them in different places.

How the values were obtained:
dopamine D1 receptor = target: T1, dopamine D1 receptor (Rattus norvegicus, UniProt P18901); test: Radioligand competition assay, D1 receptor, rat corpus striatum membranes, [3H]SCH-23390; type: binding
T1 construct: membrane preparations from dopamine-rich corpus striatum (caudatoputamen) tissue from rat forebrain; from tissue; host or cells: corpus striatum (caudatoputamen) of adult male Sprague-Dawley rats
Procedure: (§1) Affinity of N-alkyl R(−)-11-hydroxyaporphines (14, 4, 5, 15, 23, 24) and their esters (17-19) for the dopamine D1 and D2 receptors was determined by radioligand competition assays, using membrane preparations from dopamine-rich corpus striatum (caudatoputamen) tissue from rat forebrain. Adult male Sprague-Dawley rats were sacrificed by decapitation following carbon dioxide narcosis. Brains were quickly removed and dissected on ice. Tissue was homogenized in 50 mM Tris-HCl buffer (pH 7.4) containing 150 mM NaCl, washed twice and resuspended in the same buffer. For the D1 dopamine receptor assay, homogenate was incubated with 0.3 nM [^3H]SCH-23390 (Perkin Elmer; Boston, Mass.) for 30 minutes at 30° C. Non-specific binding was defined with 10 μM cis-flupenthixol. See Faedda et al., Biochem. Pharmacol. 38:473 (1989). For the D2 receptor assay, homogenate was incubated with […] [^3H]nemonapride (Perkin Elmer, Boston, Mass.) for 90 minutes at 30° C. Nonspecific binding was defined with 10 μM haloperidol. See Baldessarini et al., Mol. Pharmacol. 42:856 (1992). Experiments were carried out in triplicate.

dopamine D2 receptor = dopamine D2 receptor (Rattus norvegicus, UniProt P61169); test: Radioligand competition assay, D2 receptor, rat corpus striatum membranes, [3H]nemonapride; type: binding
Procedure: as §1

[1] = system: adult male Sprague-Dawley rats; test: Stimulation of motor activity (photobeam activity monitoring), in vivo potency and oral bioavailability; design: species or system rat; settings: for Induced motor activation, Response (total of electronically monitored locomotor responses, scored over time): relative to 4 μmol/kg i.p. R(−)-apomorphine = 1
Procedure: In vivo potency and oral bioavailability of the aporphine derivatives were determined by measuring stimulation of motor activity in adult male Sprague-Dawley rats using a photobeam activity monitoring system (San Diego Instruments; San Diego, Calif.). See Zhang et al., Neuropsychopharmacology 25:624 (2001). The number of animal subjects in each experimental group ranged from 4 to 8. Oral delivery of test agents was achieved using a permanently surgically pre-implanted polyethylene gastric tube to avoid stress associated with conventional oral intubation. For this surgery, rates were anesthetized with 60 mg/kg sodium pentobarbital intraperitoneally. PE50 tubing was inserted and sutured to the stomach, and led subcutaneously to a point of access on the back of the neck, where it was sutured in place. Animals were allowed two weeks to recover prior to behavior testing.

human D1 receptor = target: T2, human D1 receptor (Homo sapiens, UniProt P21728); test: Affinity at human D1 receptor in transfected cell membranes, tritium-labeled SCH-23390; type: binding
T2 construct: expressed in transfected cells
Procedure: (§2) Affinity data were obtained in cells transfected with human D1, D2, or D3 receptor cDNA. Cells were grown and harvested using standard procedures.

human D3 receptor = target: T3, human D3 receptor (Homo sapiens, UniProt P35462); test: Affinity at human D3 receptor in transfected cell membranes, tritium-labeled 7-OH-DPAT; type: binding
T3 construct: expressed in transfected cells
Procedure: as §2

human D2 receptor = target: T4, human D2 receptor (Homo sapiens, UniProt P14416); test: Affinity at human D2 receptor in transfected cell membranes, tritium-labeled nemonapride; type: binding
T4 construct: expressed in transfected cells
Procedure: as §2

[2] = following a single dose; cited from earlier work
[3] = rat striatal membranes, [3H]nemonapride, 90 minutes at 30° C, read-out: Affinity at rat dopamine receptors, D2
[4] = transfected cell membranes, read-out: Affinity at human receptors, D1
[5] = rat striatal membranes, 0.3 nM [3H]SCH-23390, 30 minutes at 30° C, read-out: Affinity at rat dopamine receptors, D1
[6] = transfected cell membranes, read-out: Affinity at human receptors, D2
[7] = transfected cell membranes, read-out: Affinity at human receptors, D3

T2 sequence (P21728 whole entry): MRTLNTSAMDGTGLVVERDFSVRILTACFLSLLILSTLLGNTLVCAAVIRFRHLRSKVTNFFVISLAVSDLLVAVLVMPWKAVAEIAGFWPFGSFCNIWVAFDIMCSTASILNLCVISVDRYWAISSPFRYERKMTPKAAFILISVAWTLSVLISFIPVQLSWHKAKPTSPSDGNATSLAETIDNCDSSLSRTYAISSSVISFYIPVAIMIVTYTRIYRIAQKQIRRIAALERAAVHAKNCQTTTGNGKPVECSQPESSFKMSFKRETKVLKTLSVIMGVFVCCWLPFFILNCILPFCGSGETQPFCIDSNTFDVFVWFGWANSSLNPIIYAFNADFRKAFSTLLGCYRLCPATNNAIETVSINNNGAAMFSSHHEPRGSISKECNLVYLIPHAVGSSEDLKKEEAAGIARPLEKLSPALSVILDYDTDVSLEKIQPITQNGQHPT
Sequence of dopamine D2 receptor (P61169 1-415 isoform P61169-2): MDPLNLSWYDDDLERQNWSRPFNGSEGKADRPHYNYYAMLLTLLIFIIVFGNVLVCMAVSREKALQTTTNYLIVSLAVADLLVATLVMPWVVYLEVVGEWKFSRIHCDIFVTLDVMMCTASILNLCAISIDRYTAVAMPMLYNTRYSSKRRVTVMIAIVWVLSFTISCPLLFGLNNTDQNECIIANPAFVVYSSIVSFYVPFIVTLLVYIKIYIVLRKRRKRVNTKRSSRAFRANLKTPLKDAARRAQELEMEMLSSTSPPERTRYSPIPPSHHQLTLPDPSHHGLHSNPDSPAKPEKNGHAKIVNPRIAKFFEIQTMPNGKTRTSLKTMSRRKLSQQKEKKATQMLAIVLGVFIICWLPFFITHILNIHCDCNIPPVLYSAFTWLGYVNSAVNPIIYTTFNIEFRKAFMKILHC
T4 sequence (P14416 whole entry): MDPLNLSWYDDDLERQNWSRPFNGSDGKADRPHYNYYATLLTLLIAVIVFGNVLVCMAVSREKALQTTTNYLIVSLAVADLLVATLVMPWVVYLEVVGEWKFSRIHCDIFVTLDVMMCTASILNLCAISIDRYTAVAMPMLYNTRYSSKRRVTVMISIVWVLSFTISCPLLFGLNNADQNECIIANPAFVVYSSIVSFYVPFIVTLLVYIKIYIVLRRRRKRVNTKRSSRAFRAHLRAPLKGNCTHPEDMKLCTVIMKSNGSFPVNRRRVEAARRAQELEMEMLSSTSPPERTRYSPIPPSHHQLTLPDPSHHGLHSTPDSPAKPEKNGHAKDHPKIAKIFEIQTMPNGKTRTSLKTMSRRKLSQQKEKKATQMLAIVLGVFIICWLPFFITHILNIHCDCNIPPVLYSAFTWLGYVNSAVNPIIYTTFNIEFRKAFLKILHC
T3 sequence (P35462 whole entry): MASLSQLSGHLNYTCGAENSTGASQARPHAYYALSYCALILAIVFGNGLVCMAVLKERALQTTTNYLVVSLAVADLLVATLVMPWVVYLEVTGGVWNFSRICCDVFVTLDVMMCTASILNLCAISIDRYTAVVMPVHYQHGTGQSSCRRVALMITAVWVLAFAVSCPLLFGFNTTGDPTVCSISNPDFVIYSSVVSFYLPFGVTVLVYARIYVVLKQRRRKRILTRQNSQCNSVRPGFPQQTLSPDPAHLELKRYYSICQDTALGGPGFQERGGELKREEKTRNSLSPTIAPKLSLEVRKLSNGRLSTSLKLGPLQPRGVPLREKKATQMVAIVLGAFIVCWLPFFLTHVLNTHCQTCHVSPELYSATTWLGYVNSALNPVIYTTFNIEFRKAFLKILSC
T1 sequence (P18901 whole entry): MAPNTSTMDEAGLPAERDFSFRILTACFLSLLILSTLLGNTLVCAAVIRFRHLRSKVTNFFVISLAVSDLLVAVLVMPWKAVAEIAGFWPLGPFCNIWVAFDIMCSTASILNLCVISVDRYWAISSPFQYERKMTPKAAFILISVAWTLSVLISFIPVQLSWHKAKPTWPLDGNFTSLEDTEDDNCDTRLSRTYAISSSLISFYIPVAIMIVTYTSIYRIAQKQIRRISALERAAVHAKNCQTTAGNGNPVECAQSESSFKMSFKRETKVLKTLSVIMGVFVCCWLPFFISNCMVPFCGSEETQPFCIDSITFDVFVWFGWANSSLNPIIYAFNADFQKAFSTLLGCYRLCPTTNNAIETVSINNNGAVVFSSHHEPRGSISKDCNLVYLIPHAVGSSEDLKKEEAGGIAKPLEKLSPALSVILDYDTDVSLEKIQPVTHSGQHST

Compound | Induced motor activation, Response (total of electronically monitored locomotor responses, scored over time) ([1]; 4 μmol/kg, gastric) | Induced motor activation, Duration ([1]; 20 μmol/kg, gastric) | Induced motor activation, Response (total of electronically monitored locomotor responses, scored over time) ([1]; 20 μmol/kg, gastric) | Induced motor activation, Duration ([1]; 4 μmol/kg, peritoneal) | Induced motor activation, Response (total of electronically monitored locomotor responses, scored over time) ([1]; 4 μmol/kg, peritoneal) | Ki (dopamine D1 receptor; [5]) | other results
CCCN1CCc2cc(F)cc3c2[C@H]1Cc1cccc(O)c1-3 [Compound 23, R(−)-2-fluoro-N-propyl-11-hydroxynoraporphine] | – | – | – | – | – | – | Ki (dopamine D1 receptor): 12.6 ± 0.6 nM; Ki (dopamine D2 receptor; [3]): 203 ± 37 nM
CC/C=C\C/C=C\C/C=C\C/C=C\C/C=C\C/C=C\CCC(=O)Oc1cccc2c1-c1cccc3c1[C@@H](C2)N(CCC)CC3 [Compound 17, R(−)-11-O-docosahexaenoyl-N-propyl-noraporphine] | 0 | 12 h | 75 | – | – | – | Induced motor activation, Response (total of electronically monitored locomotor responses, scored over time) ([1]; 4 μmol/kg, cutaneous): 0; Induced motor activation, Duration ([1]; 20 μmol/kg, cutaneous): 6 h; Induced motor activation, Response (total of electronically monitored locomotor responses, scored over time) ([1]; 20 μmol/kg, cutaneous): 5
CCCN1CCc2cccc3c2[C@H]1Cc1cccc(OC(C)=O)c1-3 [Compound 19, R(−)-11-O-acetyl-N-propyl-noraporphine] | 0 | 16 h | 168 | 8 h | 12 | – | Ki (dopamine D2 receptor; [3]): 72.3 ± 6.8 nM
CCN1CCc2cccc3c2[C@H]1Cc1cccc(O)c1-3 [Compound 14, R(−)—N-ethyl-11-hydroxynoraporphine] | 0 | – | 0 | 4 h | 12 | 177 ± 13 nM | Ki (human D1 receptor; [4]): 362 ± 38 nM; Ki (human D3 receptor): 36.7 ± 4 nM; Ki (human D2 receptor; [6]): 283 ± 53 nM; Ki (dopamine D2 receptor): 88 ± 15.5 nM
CN1CCc2cccc3c2[C@H]1Cc1ccc(O)c(O)c1-3 [Compound 1, R(−)-apomorphine] | – | – | – | – | – | – | effects last for [2]: 40 to 60 min; onset of action [2]: 5 to 15 min
CN1CCc2cc(O)cc3c2[C@H]1Cc1cccc(O)c1-3 [Compound 24, R(−)-2,11-dihydroxyaporphine] | – | – | – | – | – | 122 ± 8 nM | Ki (dopamine D2 receptor): 86 ± 14.2 nM
Oc1cccc2c1-c1cccc3c1[C@@H](C2)N(CC1CC1)CC3 [Compound 15, R(−)-N-cyclopropylmethyl-11-hydroxynoraporphine] | – | – | – | – | – | 272 ± 18 nM | Ki (human D3 receptor): 30.1 ± 3.5 nM; Ki (human D2 receptor; [6]): 436 ± 39 nM; Ki (dopamine D2 receptor): 96.3 ± 15.8 nM
CN1CCc2cccc3c2[C@H]1Cc1cccc(O)c1-3 [Compound 3, R(−)-11-OH-aporphine, reference compound] | – | – | – | – | – | 26.5 ± 1.03 nM | Ki (dopamine D2 receptor; [3]): 108 ± 10.8 nM
CCCN1CCc2cc(F)cc3c2[C@H]1Cc1ccc(O)c(O)c1-3 [Compound 22, R(−)-2-fluoro-N-n-propylnorapomorphine, reference compound] | – | – | – | – | – | 618 ± 133 nM | Ki (human D1 receptor; [4]): 414 ± 30 nM; Ki (human D3 receptor; [7]): 2.49 ± 0.18 nM; Ki (human D2 receptor; [6]): 46 ± 2.6 nM; Ki (dopamine D2 receptor; [3]): 17.2 ± 1.2 nM
CCN1CCc2cccc3c2[C@H]1Cc1cccc(O)c1-3 (as salt: hydrochloride) [Compound 14, R(−)—N-ethyl-11-hydroxynoraporphine] | – | – | – | – | – | – | melting point: 250 °C
CCCN1CCc2cccc3c2[C@H]1Cc1cccc(O)c1-3 [Compound 4, R(−)—N-propyl-11-hydroxynoraporphine] | 0 | 18 h | 76 | 8 h | 24 | – | Ki (human D1 receptor): 1280 ± 209 nM; Ki (human D3 receptor): 4.89 ± 1.06 nM
C=CCN1CCc2cccc3c2[C@H]1Cc1cccc(O)c1-3 (as salt: hydrochloride) [Compound 5, R(−)-N-allyl-11-hydroxynoraporphine] | – | – | – | – | – | – | melting point: 186 to 190 °C
CCCCC(=O)Oc1cccc2c1-c1cccc3c1[C@@H](C2)N(CCC)CC3 [Compound 18, R(−)-11-O-valeryl-N-propyl-noraporphine] | 0 | 14 h | 99 | 12 h | 53 | – | Ki (dopamine D2 receptor; read-out: Affinity at rat dopamine receptors, D2): 340 ± 65 nM
C=CCN1CCc2cccc3c2[C@H]1Cc1cccc(O)c1-3 [Compound 5, R(−)-N-allyl-11-hydroxynoraporphine] | – | – | – | – | – | – | Ki (human D1 receptor): 944 ± 149 nM; Ki (dopamine D1 receptor): 397 ± 51 nM; Ki (human D2 receptor): 113 ± 17 nM; Ki (dopamine D2 receptor): 41.1 ± 11 nM
CCCN1CCc2cccc3c2[C@H]1Cc1ccc(O)c(O)c1-3 [Compound 2, R(−)-N-propylnorapomorphine, reference compound] | 0 | 14 h | 68 | 8 h | 12 | – | Ki (human D3 receptor; [7]): 0.51 ± 0.07 nM
